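Briefly, cells in 96-well plates were exposed to five compound concentrations for 48 h, and endpoints were estimated by linear interpolation. Abbreviation: GI50, concentration required for 50% inhibition of growth.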 The source made the active and inactive calls. Cut-off read from the data, not from the text of the source: active = GI50 up to about 1.1 µM and inactive = higher.
Tests used:
Assay in all cases: NCI tumour cell line growth inhibition, 48 h
786-0 = tested on: 786-0
A498 = tested on: A498
A549 = tested on: A549
ACHN = tested on: ACHN
BT-549 = tested on: BT-549
CAKI-1 = tested on: CAKI-1
CCRF-CEM = tested on: CCRF-CEM
COLO 205 = tested on: COLO 205
DU-145 = tested on: DU-145
EKVX = tested on: EKVX
HCC 2998 = tested on: HCC 2998
HCT-116 = tested on: HCT-116
HCT-15 = tested on: HCT-15
HL-60 = tested on: HL-60
HOP-62 = tested on: HOP-62
HOP-92 = tested on: HOP-92
Hs-578T = tested on: Hs-578T
IGROV-1 = tested on: IGROV-1
K562 = tested on: K562
KM12 = tested on: KM12
M14 = tested on: M14
MCF7 = tested on: MCF7
MDA-MB-435 = tested on: MDA-MB-435
MOLT-4 = tested on: MOLT-4
Malme-3M = tested on: Malme-3M
NCI-H23 = tested on: NCI-H23
NCI-H460 = tested on: NCI-H460
NCI-H522 = tested on: NCI-H522
NCI/ADR-RES = tested on: NCI/ADR-RES
OVCAR-3 = tested on: OVCAR-3
OVCAR-4 = tested on: OVCAR-4
OVCAR-5 = tested on: OVCAR-5
OVCAR-8 = tested on: OVCAR-8
PC-3 = tested on: PC-3
RPMI-8226 = tested on: RPMI-8226
RXF 393 = tested on: RXF 393
SF-268 = tested on: SF-268
SF-295 = tested on: SF-295
SF-539 = tested on: SF-539
SK-MEL-2 = tested on: SK-MEL-2
SK-MEL-5 = tested on: SK-MEL-5
SK-OV-3 = tested on: SK-OV-3
SN12C = tested on: SN12C
SNB-19 = tested on: SNB-19
SNB-75 = tested on: SNB-75
SW-620 = tested on: SW-620
T47D = tested on: T47D
TK-10 = tested on: TK-10
U-251 = tested on: U-251
UACC-257 = tested on: UACC-257
UO-31 = tested on: UO-31
HT-29 = tested on: HT-29
LOX IMVI = tested on: LOX IMVI
MDA-MB-231 = tested on: MDA-MB-231
NCI-H226 = tested on: NCI-H226
SK-MEL-28 = tested on: SK-MEL-28
SR = tested on: SR
UACC-62 = tested on: UACC-62
MDA-N = tested on: MDA-N

In the case of Cc1c(-c2ccc(O)c(O)c2)oc(=O)c2c(O)cccc12, the GI50 (786-0) is reported as 9.73 µM (inactive), the GI50 (A498) is reported as 15 µM (inactive) and the GI50 (A549) is reported as 7.93 µM (inactive). For the same compound, the GI50 (ACHN) was 20 µM (inactive), the GI50 (BT-549) was 6.24 µM (inactive) and the GI50 (CAKI-1) was 7.35 µM (inactive). The GI50 (CCRF-CEM) was 3.08 µM (inactive), the GI50 (COLO 205) was 9.71 µM (inactive) and the GI50 (DU-145) was 14.4 µM (inactive). For the same compound, the GI50 (EKVX) was 8.87 µM (inactive), the GI50 (HCC 2998) was 10.4 µM (inactive) and the GI50 (HCT-116) was 6.56 µM (inactive). The GI50 (HCT-15) was 3.96 µM, the GI50 (HL-60) was 3.88 µM (inactive) and the GI50 (HOP-62) was 10.7 µM (inactive). The GI50 (HOP-92) was 16.3 µM (inactive), the GI50 (Hs-578T) was 3.03 µM (inactive) and the GI50 (IGROV-1) was 5.82 µM (inactive). For the same compound, the GI50 (K562) was 4.85 µM (inactive), the GI50 (KM12) was 10.1 µM (inactive) and the GI50 (M14) was 8.05 µM (inactive). The GI50 (MCF7) was 6.68 µM (inactive), the GI50 (MDA-MB-435) was 3.17 µM (inactive) and the GI50 (MOLT-4) was 3.02 µM (inactive). The GI50 (Malme-3M) was 13.3 µM (inactive), the GI50 (NCI-H23) was 10.3 µM (inactive) and the GI50 (NCI-H460) was 11.6 µM (inactive). The GI50 (NCI-H522) was 2.95 µM (inactive), the GI50 (NCI/ADR-RES) was 10.5 µM (inactive) and the GI50 (OVCAR-3) was 11.6 µM (inactive). For the same compound, the GI50 (OVCAR-4) was 11.7 µM (inactive), the GI50 (OVCAR-5) was 14.8 µM (inactive) and the GI50 (OVCAR-8) was 53.3 µM (inactive). The GI50 (PC-3) was 12.9 µM (inactive), the GI50 (RPMI-8226) was 13.7 µM (inactive) and the GI50 (RXF 393) was 12.4 µM (inactive). The GI50 (SF-268) was 9.1 µM (inactive), the GI50 (SF-295) was 17.7 µM (inactive) and the GI50 (SF-539) was 12.5 µM (inactive). The GI50 (SK-MEL-2) was 13.1 µM (inactive), the GI50 (SK-MEL-5) was 10.4 µM (inactive) and the GI50 (SK-OV-3) was 6.04 µM (inactive). For the same compound, the GI50 (SN12C) was 5.27 µM (inactive), the GI50 (SNB-19) was 6.3 µM (inactive) and the GI50 (SNB-75) was 13.3 µM (inactive). For the same compound, the GI50 (SW-620) was 12.2 µM (inactive), the GI50 (T47D) was 1.55 µM (inactive) and the GI50 (TK-10) was 12.2 µM (inactive). The GI50 (U-251) was 12.1 µM (inactive), the GI50 (UACC-257) was 15.7 µM (inactive) and the GI50 (UO-31) was 11.1 µM (inactive).

For N#Cc1c(-c2ccc([N+](=O)[O-])cc2)cc(-c2ccc(Nc3ccnc4cc(C(F)(F)F)ccc34)cc2)[nH]c1=O, the GI50 (786-0) was 51.9 µM (inactive), the GI50 (A498) was > 100 µM (inactive) and the GI50 (A549) was > 100 µM (inactive). For the same compound, the GI50 (ACHN) was > 100 µM (inactive), the GI50 (BT-549) was > 100 µM (inactive) and the GI50 (CAKI-1) was > 100 µM (inactive). For the same compound, the GI50 (CCRF-CEM) was > 100 µM (inactive), the GI50 (COLO 205) was 12.2 µM (inactive) and the GI50 (DU-145) was 71.3 µM (inactive). The GI50 (EKVX) was > 100 µM (inactive), the GI50 (HCC 2998) was > 100 µM (inactive) and the GI50 (HCT-116) was 22.2 µM (inactive). For the same compound, the GI50 (HCT-15) was over 100 µM, the GI50 (HOP-62) was > 100 µM (inactive) and the GI50 (HT-29) was 92.9 µM (inactive). The GI50 (IGROV-1) was > 100 µM (inactive), the GI50 (K562) was > 100 µM (inactive) and the GI50 (LOX IMVI) was > 100 µM (inactive). The GI50 (M14) was 80.9 µM (inactive), the GI50 (MCF7) was > 100 µM (inactive) and the GI50 (MDA-MB-231) was 16.3 µM (inactive). The GI50 (MDA-MB-435) was > 100 µM (inactive), the GI50 (MOLT-4) was > 100 µM (inactive) and the GI50 (Malme-3M) was > 100 µM (inactive). The GI50 (NCI-H226) was > 100 µM (inactive), the GI50 (NCI-H23) was > 100 µM (inactive) and the GI50 (NCI-H460) was > 100 µM (inactive). The GI50 (NCI-H522) was > 100 µM (inactive), the GI50 (NCI/ADR-RES) was > 100 µM (inactive) and the GI50 (OVCAR-4) was > 100 µM (inactive). For the same compound, the GI50 (OVCAR-5) was 21.4 µM (inactive), the GI50 (OVCAR-8) was > 100 µM (inactive) and the GI50 (PC-3) was > 100 µM (inactive). For the same compound, the GI50 (RPMI-8226) was > 100 µM (inactive), the GI50 (RXF 393) was > 100 µM (inactive) and the GI50 (SF-268) was > 100 µM (inactive). The GI50 (SF-295) was > 100 µM (inactive), the GI50 (SF-539) was > 100 µM (inactive) and the GI50 (SK-MEL-28) was > 100 µM (inactive). For the same compound, the GI50 (SK-MEL-2) was > 100 µM (inactive), the GI50 (SK-MEL-5) was > 100 µM (inactive) and the GI50 (SK-OV-3) was > 100 µM (inactive). For the same compound, the GI50 (SN12C) was > 100 µM (inactive), the GI50 (SNB-19) was 24.4 µM (inactive) and the GI50 (SNB-75) was > 100 µM (inactive). For the same compound, the GI50 (SR) was > 100 µM (inactive), the GI50 (SW-620) was > 100 µM (inactive) and the GI50 (T47D) was > 100 µM (inactive). For the same compound, the GI50 (TK-10) was 52.2 µM (inactive), the GI50 (U-251) was 10 µM (inactive) and the GI50 (UACC-257) was > 100 µM (inactive). The GI50 (UACC-62) was > 100 µM (inactive) and the GI50 (UO-31) was > 100 µM (inactive).

CCc1c(O)nc(Nc2nc3ccccc3[nH]2)[nH]c1=O was tested, and the GI50 (786-0) was > 100 µM (inactive), the GI50 (A498) was > 100 µM (inactive) and the GI50 (A549) was > 100 µM (inactive). For the same compound, the GI50 (ACHN) was > 100 µM (inactive), the GI50 (BT-549) was > 100 µM (inactive) and the GI50 (CCRF-CEM) was > 100 µM (inactive). For the same compound, the GI50 (COLO 205) was > 100 µM (inactive), the GI50 (DU-145) was > 100 µM (inactive) and the GI50 (HCC 2998) was > 100 µM (inactive). The GI50 (HCT-116) was > 100 µM (inactive), the GI50 (HCT-15) was over 100 µM and the GI50 (HL-60) was > 100 µM (inactive). For the same compound, the GI50 (HOP-62) was > 100 µM (inactive), the GI50 (HOP-92) was 27.7 µM (inactive) and the GI50 (HT-29) was > 100 µM (inactive). For the same compound, the GI50 (Hs-578T) was > 100 µM (inactive), the GI50 (IGROV-1) was > 100 µM (inactive) and the GI50 (K562) was > 100 µM (inactive). The GI50 (LOX IMVI) was > 100 µM (inactive), the GI50 (M14) was > 100 µM (inactive) and the GI50 (MCF7) was > 100 µM (inactive). For the same compound, the GI50 (MDA-MB-231) was > 100 µM (inactive), the GI50 (MDA-MB-435) was > 100 µM (inactive) and the GI50 (MDA-N) was > 100 µM (inactive). For the same compound, the GI50 (Malme-3M) was > 100 µM (inactive), the GI50 (NCI-H226) was > 100 µM (inactive) and the GI50 (NCI-H23) was > 100 µM (inactive). For the same compound, the GI50 (NCI-H460) was > 100 µM (inactive), the GI50 (NCI-H522) was > 100 µM (inactive) and the GI50 (NCI/ADR-RES) was > 100 µM (inactive). The GI50 (OVCAR-3) was > 100 µM (inactive), the GI50 (OVCAR-4) was > 100 µM (inactive) and the GI50 (OVCAR-5) was > 100 µM (inactive). The GI50 (OVCAR-8) was > 100 µM (inactive), the GI50 (PC-3) was > 100 µM (inactive) and the GI50 (RXF 393) was > 100 µM (inactive). The GI50 (SF-268) was > 100 µM (inactive), the GI50 (SF-295) was > 100 µM (inactive) and the GI50 (SF-539) was > 100 µM (inactive). The GI50 (SK-MEL-28) was > 100 µM (inactive), the GI50 (SK-MEL-2) was > 100 µM (inactive) and the GI50 (SK-MEL-5) was > 100 µM (inactive). For the same compound, the GI50 (SK-OV-3) was > 100 µM (inactive), the GI50 (SN12C) was > 100 µM (inactive) and the GI50 (SNB-19) was > 100 µM (inactive). The GI50 (SNB-75) was > 100 µM (inactive), the GI50 (SR) was 92.9 µM (inactive) and the GI50 (SW-620) was > 100 µM (inactive). The GI50 (TK-10) was > 100 µM (inactive), the GI50 (U-251) was > 100 µM (inactive) and the GI50 (UACC-257) was > 100 µM (inactive). The GI50 (UACC-62) was > 100 µM (inactive) and the GI50 (UO-31) was > 100 µM (inactive).

From ChEMBL document CHEMBL1201862, “PubChem BioAssay data set” (2004)
